Assay [1] deals with memory disorder induced by amyloid β protein oligomer. The assay is described as follows: novel object recognition test in mouse model of memory disorder by administration of the amyloid β protein oligomer. Type of assay: in vivo, ICR mice. The conditions noted are these: for ability to remember (exploration time for novel object vs familiar object): 1 μM amyloid β protein oligomer + 10 μM peptide in artificial cerebrospinal fluid, 3.5 μl/side to lateral ventricles, test session 24 h after training, paired t-test. As for the experimental part:
Preparation of a mouse model of memory disorder by administration of the amyloid β protein oligomer, and evaluation of the ability of memory acquisition by a novel object recognition test were carried out according to an earlier paper (Balducci et al., Proc Natl Acad Sci USA 107, 2295-2300, 2010).
ICR mice (6 to 7 weeks old) were anesthetized with ketamine (100 mg/kg) and xylazine (40 mg/kg), and each mouse was fixed on a brain stereotaxic apparatus. After removal of the scalp, small holes were made on the skull on the lateral ventricles, and guide cannulae (23 gage) were bilaterally embedded at the positions of ±1.0 mm lateral and 0.65 mm posterior to the bregma. The guide cannulae were fixed with a dental resin. After a period of four to five days for recovery from the surgery, each mouse was allowed to move freely for 10 minutes in order to allow acclimatization to the environment in a test cage (39 cm×22 cm) (habituation). This was continued for 3 days. On the next day, an artificial cerebrospinal fluid (control), artificial cerebrospinal fluid in Which 1 μM amyloid β protein oligomer is dissolved, or artificial cerebrospinal fluid in which 1 μM amyloid β protein oligomer and 10 μM p3-Alcβ37 peptide or a partial peptide thereof are dissolved, was bilaterally administered (3.5 μl/side) to the lateral ventricles through the guide cannulae embedded in the head, using an injection cannulae (30 gage, 1.7 mm from the brain surface).
Two hours after the administration, two identical objects (glass vials each having a plastic cap [objects A]: 3-cm diameter×6.5-cm height) were placed in the test cage for which the habituation had been carried out, such that the objects were positioned about 20 cm distant from each other. In the test cage, each mouse was allowed to move freely for 10 minutes to allow learning of the object A (training session). On the next day, 24 hours after the learning, a test was carried out to investigate if the mouse remembered the object A, which was presented on the previous day (test session). More specifically, in the same test cage, the object A presented on the previous day (that is, a familiar object) and a novel object (a metal cube [object B]: 4 cm×4 cm×4 cm) were placed at the same positions as those used on the previous day, and the mouse was allowed to move freely for 10 minutes in the test cage. In normal mice, since they naturally show interest in novel objects, the time for exploring the novel object (object B) is longer than the time for exploring the familiar object (object A). […] The exploratory behavior for each object was recorded using a video camera, and the total exploration time for each object was calculated. The time spent for contacting or approach of the head to the object (including sniffing), and contacting of a forelimb or hindlimb with the object was included in the exploration time. The ability of memory acquisition of the mice in each group was represented using the discrimination index. The discrimination index was defined as follows: ([exploration time for novel object]−[exploration time for familiar object ])/([exploration time for novel object]+[exploration time for familiar object]). In cases where discrimination between the novel object and the familiar object is impossible, the discrimination index is 0, while in cases where the exploration time for the novel object is longer than the exploration time for the familiar object, the discrimination index is positive. […] Therefore, the calculation of the exploration time and the discrimination index was carried out based on the behavior observed during the first 5 minutes after the placement of the mouse in the test cage.
In terms of the reagents used, the composition of the artificial cerebrospinal fluid was as follows: 137 mM NaCl, 3 mM KCl, 1 mM MgCl2, 1.2 mM CaCl2, 2.5 mM glucose, and 2 mM sodium phosphate buffer (pH 7.4). […]

Assay [2] concerns memory disorder induced by MK-801 (NMDA receptor-dependent memory disorder). Put plainly: novel object recognition test in mouse model of memory disorder prepared by administration of NMDA receptor inhibitor MK-801. Type of assay: in vivo, ICR mice. The conditions noted are these: 10 μM peptide to cerebral ventricle; (+)-MK-801 maleate 2 mg/kg intraperitoneally; paired t-test, P>0.05.
Protocol: ICR mice (6 to 7 weeks old) were anesthetized with ketamine (100 mg/kg) and xylazine (40 mg/kg), and each mouse was fixed on a brain stereotaxic apparatus. After removal of the scalp, small holes were made on the skull on the lateral ventricles, and guide cannulae (23 gage) were bilaterally embedded at the positions of ±1.0 mm lateral and 0.65 mm posterior to the bregma. The guide cannulae were fixed with a dental resin. After a period of four to five days for recovery from the surgery, each mouse was allowed to move freely for 10 minutes in order to allow acclimatization to the environment in a test cage (39 cm×22 cm) (habituation). This was continued for 3 days. […]
Two hours after the administration, two identical objects (glass vials each having a plastic cap [objects A]: 3-cm diameter×6.5-cm height) were placed in the test cage for which the habituation had been carried out, such that the objects were positioned about 20 cm distant from each other. […] The exploratory behavior for each object was recorded using a video camera, and the total exploration time for each object was calculated. […]

No end group written: not given here.

The record followed here is US10206979B2, “Treatment agent for cognitive impairment induced by amyloid beta-protein, therapeutic agent for alzheimer's disease, and treatment method and pathological analysis method related to these” (NATIONAL UNIVERSITY CORPORATION OKAYAMA UNIVERSITY, priority 2013, dated 2019).

For “GHSLASSHRNSMIPSAAT (a part of p3-Alc beta 37 (position 20-37)) [p3-Alcβ37 [20-37], partial peptide corresponding to positions 20 to 37 of p3-Alcβ37]”, the “ability to remember (exploration time for novel object vs familiar object)” value in assay [1] was “no recovery of the ability to remember”.

Turning to “HRGHQPPPEMA (a part of p3-Alc beta 37 (position 9-19)) [p3-Alcβ37[9-19], partial peptide corresponding to positions 9 to 19 of p3-Alcβ37 (11 amino acids)]”, the “ability to remember (exploration time for novel object vs familiar object)” value in assay [1] is listed as “ability to remember showed remarkable recovery”.

As for “VLSSQQFLHRG (a part of p3-Alc beta 37 (position 1-11)) [p3-Alcβ37[1-11], partial peptide corresponding to positions 1 to 11 of p3-Alcβ37]”, the “ability to remember (exploration time for novel object vs familiar object)” value in assay [1] is listed as “ability to remember remained impaired”.

Turning to “VLSSQQFLHRGHOPPPEMA (VLSSQQFLHRGHQPPPEMA; not fully specified) [p3-Alcβ37 [1-19], partial peptide corresponding to positions 1 to 19 of p3-Alcβ37]”, the “ability to remember (exploration time for novel object vs familiar object)” value in assay [1] is reported as “remarkable recovery of the ability to remember”.

For “VLSSQQFLHRGHQPPPEMAGHSLASSHRNSMIPSAAT (listed as Homo sapiens) [p3-Alcβ37, peptide composed of 37 amino acids produced by cleavage of Alcadein-β by γ-secretase and α-secretase]”, in assay [1], the “ability to remember (exploration time for novel object vs familiar object)” value was “remarkable recovery of the ability to remember”. The “discrimination index relative to the group in which the oligomer was administered” value in assay [1] (1 μM oligomer + 10 μM peptide, lateral ventricles, Tukey test, P<0.01) is “significant increase in the discrimination index”. Also, in assay [1] (1 μM oligomer + 10 μM peptide, lateral ventricles, Tukey test, P>0.05), the “discrimination index relative to the group in which the artificial cerebrospinal fluid was administered” value is on record as “No significant difference in the discrimination index”. Besides, the “effect to ameliorate memory disorder (exploration time for novel object vs familiar object)” value in assay [2] is on record as “effect to ameliorate memory disorder was not found”.
